# Values joined by “and” are separate entries in the source; they are usually repeats but may differ in a detail not shown here. Identical values can stand only once. Like-named read-outs stand apart in the source and are kept apart here. Peptide text beside a SMILES is read from it.
# Key:
# [1] = test system: MRSA (NCTC 12493); experiment: Time–killing assay; format: cell-based, methicillin-resistant Staphylococcus aureus; settings: control antibiotic, 3 h incubation
# Method: (§1) S. aureus (NCTC 10788), E. coli (ATCC 8739), MRSA (NCTC 12493), and P. aeruginosa (ATCC 9027) were used in this assay. Treatments of 2 × MIC, 1 × MIC, and 0.5 × MIC of [Lys^4,19, Leu^20]R2AW(1-22)-NH2 were prepared and mixed with 198 μL of diluted bacteria (5 × 10^5 CFU/mL). At each time point (0, 10, 20, 30, 60, 90, 120, and 180 min), 10 μL of peptide and bacteria mixture was dropped onto the MHA plate. After overnight incubation, the number of bacterial colonies was calculated. The CFU/mL could be calculated using the formula CFU/mL = (Number of colonies × dilution factor)/volume of culture.
# [2] = test system: S. aureus (NCTC 10788); experiment: Time–killing assay; format: cell-based, Staphylococcus aureus; settings: control antibiotic, 3 h incubation
# Method: as §1
# [3] = test system: E. faecium (NTCC 12697); experiment: microbe, parasite or virus in culture; format: cell-based
# Text: (§2) The MIC and MBC assays were used to assess the inhibitory activities of all 5 analogues of R2AW on the growth of planktonic microorganisms. The MIC is the lowest concentration that prevents the viable growth of bacteria. The MBC is the lowest concentration that results in bacterial death. Six microorganisms were used to detect the antimicrobial activity of peptides, including Gram-positive bacteria S. aureus (NCTC 10788), MRSA (NCTC 12493), Enterococcus faecalis (E. faecalis) (NCTC 12697), Gram-negative bacteria E. coli […], Klebsiella pneumoniae (K. pneumoniae) (ATCC 43816), and Pseudomonas aeruginosa (P. aeruginosa) (ATCC 9027). According to the assay described previously, the microorganisms were inoculated at 37 °C overnight and diluted to 5 × 10^5 CFU/mL after reaching the logarithmic growth period. The peptide stock solution at the concentration of 512 × 10^2 μM was prepared and diluted to 100 μM by a 2-fold dilution. One μL of each concentration of peptide solution was incubated with 99 μL of bacterial subculture in the 96-well plate for 18 h at 37 °C. The absorbance was determined at a wavelength of 550 nm using a Synergy HT plate reader (Bio Tek, Washington, DC, USA). […] As for those wells that were clearly visible, 20 μL of the solution was dropped onto the Mueller Hinton agar (MHA) dish and then incubated at 37 °C overnight. The lowest concentration with no colony growth was determined as the MBC.
# [4] = test system: MRSA (NCTC 12493); experiment: microbe, parasite or virus in culture; format: cell-based
# Text: as §2
# [5] = test system: S. aureus (NCTC 10788); experiment: microbe, parasite or virus in culture; format: cell-based
# Text: as §2
# [6] = test system: H838; format: cell-based, human; settings: 24 h
# Method: (§3) Five human cancer cell lines of non-small-cell lung cancer H838, human prostate carcinoma PC-3, human neuronal glioblastoma U251MG, human breast cancer cell MCF-7, and colorectal carcinoma HCT116 were used to detect the antiproliferative abilities of R2AW and its five analogues. According to the procedures in a previous article, cells (8000 cells/well) were seeded into the 96-well tissue culture plates and incubated at 37 °C with 5% CO2 overnight. The solutions of R2AW and its analogues at concentrations of 10^−4 M to 10^−9 M were prepared in the serum-free medium. Next, cells in each well were treated with 100 μL of each peptide solution for 24 h. Subsequently, 10 μL of 5 mg/mL MTT (3-(4, 5-Dimethylthiazol-2-yl-)-2, 5-Diphehyltetrazolium Bromide) was added to each well followed by 37 °C incubation for 2 h. After that, the liquid in each well was removed and 100 μL of DMSO was added to dissolve the purple formazan. The plate was placed on a shaking incubator for 10 min, and the absorbance was detected at 550 nm using a Synergy HT plate reader (Biotech, Minneapolis, MN, USA).
# [7] = test system: MCF-7; format: cell-based, human; settings: 24 h
# Method: as §3
# [8] = test system: HCT116; format: cell-based, human; settings: 24 h
# Method: as §3
# [9] = test system: U251MG; format: cell-based, human; settings: 24 h
# Method: as §3
# [10] = test system: PC-3; format: cell-based, human; settings: 24 h
# Method: as §3
# [11] = test system: K. pneumoniae (ATCC 43816); format: cell-based, Klebsiella pneumoniae
# Method: (§4) As a previous study described in detail, the ability of R2AW and its analogues to inhibit and eradicate the formation of biofilm was investigated. The MBIC is the lowest concentration which inhibits the formation of biofilm. The MBEC is the minimum concentration that eradicates biofilm. Six bacterial strains were used, as described above. Briefly, the bacteria were cultured and then diluted to 5 × 10^5 CFU/mL. In MBIC assays, 1 μL of each concentration of R2AW and its analogues (ranging from 512 × 10^2 μM to 100 μM) was mixed with 99 μL of diluted bacterial suspension in a 96-well plate for 16-20 h at 37 °C. As for MBEC assays, 100 μL of cultured bacteria were seeded in a 96-well plate and incubated on the shaking incubator at 37 °C overnight for biofilm formation. Subsequently, each well was rinsed twice with 100 μL sterile PBS to remove planktonic cells, and then replaced with 100 μL of each concentration (ranging from 512 μM to 1 μM) of peptides. After 24 h incubation, the biofilm was washed twice with 100 μL of PBS and fixed with methanol. Next, the same volume of 0.1% crystal violet solution (Sigma-Aldrich, Gillingham, UK) was added to each well to stain the biofilm. After that, 100 μL of 30% of acetic acid (Sigma-Aldrich, Gillingham, UK) was transferred to each well for dissolution. The solutions were transferred into a new 96-well plate and the absorbances of wells was monitored using a Synergy HT plate reader set to 595 nm.
# [12] = test system: E. faecium (NTCC 12697); format: cell-based
# Method: as §4
# [13] = test system: S. aureus (NCTC 10788); format: cell-based, Staphylococcus aureus
# Method: as §4
# [14] = Haemolysis assay; format: cell-based, horse; settings: horse
# Method: The haemolytic activity of R2AW and its five designed analogues on mammalian erythrocytes was evaluated using 2% defibrinated horse blood (TCS Biosciences Ltd., Buckingham, UK) as per a previous report. Two mL of fresh horse blood was transferred into a 50 mL tube and then washed with sterilised PBS. The supernatant was removed after centrifuging (930× g, 5 min). The centrifugation procedure was repeated until the supernatant was clear. After washing, the red blood cell pellet was diluted with PBS to achieve a 4% (v/v) erythrocyte suspension. The concentrations of R2AW and its designed derivatives were prepared from 512 μM to 2 μM by two-fold dilution in sterilised PBS. One hundred µL of red blood cell suspension was added into a 1.5 mL tube treated with the same volume of each concentration of peptide and incubated at 37 °C for 2 h. The red blood cell suspensions treated with 0.2% Triton X-100 and with PBS were regarded as positive control and negative control. After centrifugation at 930× g for 10 min, 100 μL of suspension was transferred to a 96-well plate, and the absorbance was obtained by use of a Synergy HT plate reader. The degree of haemolysis could be calculated using the following formula: Haemolysis = (absorbance (experimental groups) − absorbance (negative control))/(absorbance (positive control) − absorbance (negative control)) × 100%.
# [15] = test system: E. coli (ATCC 8739); format: cell-based, Escherichia coli
# Method: as §4
# [16] = test system: P. aeruginosa (ATCC 9027); format: cell-based
# Text: as §2
# [17] = test system: E. coli (ATCC 8739); format: cell-based
# Text: as §2
# [18] = test system: K. pneumoniae (ATCC 43816); format: cell-based
# Text: as §2
# [19] = test system: P. aeruginosa (ATCC 9027); format: cell-based, Pseudomonas aeruginosa
# Method: as §4
# [20] = test system: MRSA (NCTC 12493); format: cell-based, methicillin-resistant Staphylococcus aureus; settings: NCTC 12493
# Method: as §4
# [21] = test system: P. aeruginosa (ATCC 9027); experiment: Time–killing assay; format: cell-based, Pseudomonas aeruginosa; settings: peptide control
# Method: as §1
# [22] = test system: E. coli (ATCC 8739); experiment: Time–killing assay; format: cell-based, Escherichia coli; settings: peptide control
# Method: as §1
# [23] = Staphylococcus aureus, NCTC10788
compound,measurement,setting,value
"CN[C@H](CC(C)C)C(=O)N[C@H]1C(=O)N[C@@H](CC(N)=O)C(=O)N[C@H]2C(=O)N[C@H]3C(=O)N[C@H](C(=O)N[C@H](C(=O)O)c4cc(O)cc(O)c4-c4cc3ccc4O)[C@H](O)c3ccc(c(Cl)c3)Oc3cc2cc(c3O[C@@H]2O[C@H](CO)[C@@H](O)[C@H](O)[C@H]2O[C@H]2C[C@](C)(N)[C@H](O)[C@H](C)O2)Oc2ccc(cc2Cl)[C@H]1O [Vancomycin, reference compound]",killing effect in time–killing curve,[1],could only inhibit the growth of bacteria
same,killing effect in time–killing curve,[2],could only inhibit the growth of bacteria
same,MBC,[3]; Enterococcus faecium,> 92.7 µg/mL and > 64 µM
same,MIC,[3]; Enterococcus faecium,0.7 µg/mL and 0.5 µM
same,MBC,[4]; Staphylococcus aureus,0.7 µg/mL and 0.5 µM
same,MIC,[4]; Staphylococcus aureus,0.7 µg/mL and 0.5 µM
same,MBC,[5]; [23],0.7 µg/mL and 0.5 µM
same,MIC,[5]; [23],0.7 µg/mL and 0.5 µM
"CSCC[C@H](NC(=O)[C@H](Cc1ccccc1)NC(=O)CN)C(=O)N[C@@H](CCCCN)C(=O)N[C@H](C(=O)N[C@@H](Cc1c[nH]c2ccccc12)C(=O)N[C@@H](CCCCN)C(=O)N[C@@H](CC(N)=O)C(=O)N[C@H](C(=O)N[C@@H](Cc1c[nH]c2ccccc12)C(=O)N[C@@H](CCCCN)C(=O)N[C@@H](CC(N)=O)C(=O)N[C@H](C(=O)N[C@@H](C)C(=O)N[C@@H](C)C(=O)N[C@H](C(=O)N[C@@H](CC(C)C)C(=O)N[C@@H](CC(C)C)C(=O)N[C@@H](CCCCN)C(=O)N[C@@H](CC(C)C)C(=O)N[C@@H](CC(C)C)C(=O)N[C@@H](CCCCN)C(N)=O)[C@@H](C)O)C(C)C)C(C)C)[C@@H](C)O [[Trp^6,10]R2AW(1-22)-NH2] (H-GFMKTWKNVWKNVAATLLKLLK-NH2; N-terminus assumed)",IC50,[6],3.41 µM
same,IC50,[7],5.33 µM
same,IC50,[8],5.38 µM
same,IC50,[9],3.35 µM
same,IC50,[10],1.73 µM
same,MBEC,[11],256 µM
same,MBIC,[11],16 µM
same,MBEC,[12],> 512 µM
same,MBIC,[12],8 µM
same,MBEC,[13],512 µM
same,MBIC,[13],8 µM
same,"hemolysis at 2 h, 2 µM",[14],~20%
same,MBEC,[15],256 µM
same,MBIC,[15],4 µM
same,MBC,"[16]; ATCC 9027, 18 h",166 mg/L
same,MIC,"[16]; ATCC 9027, 18 h",82.8 mg/L
same,MBC,"[17]; ATCC 8739, 18 h",41.4 mg/L
same,MIC,"[17]; ATCC 8739, 18 h",20.7 mg/L
same,MBC,"[18]; ATCC 43816, 18 h",82.8 mg/L
same,MIC,"[18]; ATCC 43816, 18 h",41.4 mg/L
same,MBC,"[3]; NTCC 12697, 18 h",41.4 mg/L
same,MIC,"[3]; NTCC 12697, 18 h",20.7 mg/L
same,MBC,[4]; MRSA (NCTC 12493),20.7 mg/L
same,MIC,[4]; MRSA (NCTC 12493),10.4 mg/L
same,MBC,"[5]; NCTC 10788, 18 h",20.7 mg/L
same,MIC,"[5]; NCTC 10788, 18 h",10.4 mg/L
same,MBEC,[19],512 µM
same,MBIC,[19],32 µM
same,MBEC,[20],> 512 µM
same,MBIC,[20],8 µM
Colistin [reference compound],killing effect in time–killing curve,[21],rapid bacterial killing effect
same,MBC,[16]; P. aeruginosa (ATCC 9027),2.3 mg/L and 2 µM
same,MIC,[16]; P. aeruginosa (ATCC 9027),1.2 mg/L and 1 µM
same,MBC,[17]; E. coli (ATCC 8739),0.3 mg/L and 0.25 µM
same,MIC,[17]; E. coli (ATCC 8739),0.1 mg/L and 0.125 µM
same,MBC,[18]; K. pneumoniae (ATCC 43816),18.5 mg/L and 16 µM
same,MIC,[18]; K. pneumoniae (ATCC 43816),18.5 mg/L and 16 µM
same,killing effect in time–killing curve,[22],rapid bacterial killing effect

# From article PMC10812557, “Progressive Design of a Ranatuerin-2 Peptide from Amolops wuyiensis: Enhancement of Bioactivity and In Vivo Efficacy” (Antibiotics, 2023)
